Data taken from patent publication US20260198498A1, “FUNGICIDAL COMPOSITIONS” (SYNGENTA CROP PROTECTION AG, priority 2022, published 2026).

Legend:
[1] = tested on: Botryotinia fuckeliana (Botrytis cinerea); experiment: Example B2: Botryotinia fuckeliana (Botrytis cinerea)/Liquid Culture (Gray Mould); format: cell-based; conditions: liquid culture, growth inhibition photometrically 3 to 4 days after application, read-out: control of Botryotinia fuckeliana
Description: Example B2: Botryotinia fuceliana (Botrytis cinerea)/Liquid Culture (Gray Mould)
Conidia of the fungus from cryogenic storage are directly mixed into nutrient broth (Vogels broth). After placing a (DMSO) solution of test compound into a microtiter plate (96-well format), the nutrient broth containing the fungal spores is added. The test plates are incubated at 24° C. and the inhibition of growth is determined photometrically 3 to 4 days after application.

[2] = tested on: Phaeosphaeria nodorum (Septoria nodorum); experiment: Example B11: Phaeosphaeria nodorum (Septoria nodorum)/Wheat/Leaf Disc Preventative (Glume Blotch); format: in vivo; conditions: Parastagonospora nodorum, foliar, wheat leaf segments, inoculated 2 days after application
Description: Example B11: Phaeosphaeria nodorum (Septoria nodorum)/Wheat/Leaf Disc Preventative (Glume Blotch)
Wheat leaf segments cv. Kanzler are placed on agar in a multiwell plate (24-well format) and sprayed with the formulated test compound diluted in water. The leaf disks are inoculated with a spore suspension of the fungus 2 days after application. The inoculated test leaf disks are incubated at 20° C. and 75% rh under a light regime of 12 h light/12 h darkness in a climate cabinet and the activity of a compound is assessed as percent disease control compared to untreated when an appropriate level of disease damage appears in untreated check leaf disks (5-7 days after application).

[3] = tested on: Monographella nivalis (Microdochium nivale); experiment: Example B12: Monographella nivalis (Microdochium nivale)/Liquid Culture (Foot Rot Cereals); format: cell-based; conditions: liquid culture, photometrically 4 to 5 days after application, read-out: control of Monographella nivalis
Description: Example B12: Monographella nivalis (Microdochium nivale)/Liquid Culture (Foot Rot Cereals)
(§1) Conidia of the fungus from cryogenic storage are directly mixed into nutrient broth (PDB potato dextrose broth). After placing a (DMSO) solution of test compound into a microtiter plate (96-well format), the nutrient broth containing the fungal spores is added. The test plates are incubated at 24° C. and the inhibition of growth is determined photometrically 4 to 5 days after application.

[4] = tested on: Mycosphaerella arachidis (Cercospora arachidicola); experiment: Example B13: Mycosphaerella arachidis (Cercospora arachidicola)/Liquid Culture (Early Leaf Spot); format: cell-based; conditions: liquid culture, photometrically 4 to 5 days after application, read-out: control of Mycosphaerella arachidis
Description: Example B13: Mycosphaerella arachidis (Cercospora arachidicola)/Liquid Culture (Early Leaf Spot)
as §1

[5] = tested on: Mycosphaerella graminicola (Septoria tritici); experiment: Example B21: Mycosphaerella graminicola (Septoria tritici)/Liquid Culture (Septoria Blotch); format: cell-based; conditions: Zymoseptoria tritici, liquid culture, photometrically 4-5 days after application, read-out: control of Mycosphaerella graminicola
Description: Example B21: Mycosphaerella graminicola (Septoria tritici)/Liquid Culture (Septoria Blotch)
Conidia of the fungus from cryogenic storage are directly mixed into nutrient broth (PDB potato dextrose broth). After placing a (DMSO) solution of test compound into a microtiter plate (96-well format), the nutrient broth containing the fungal spores is added. The test plates are incubated at 24° C. and the inhibition of growth is determined photometrically 4-5 days after application.

[6] = tested on: Glomerella lagenarium (Colletotrichum lagenarium); experiment: Example B5: Glomerella lagenarium (Colletotrichum lagenarium)/Liquid Culture (Anthracnose); format: cell-based; conditions: Colletotrichum orbiculare, liquid culture, photometrically 3 to 4 days after application, read-out: control of Glomerella lagenarium
Description: Example B5: Glomerella lagenarium (Colletotrichum lagenarium)/Liquid Culture (Anthracnose)
Conidia of the fungus from cryogenic storage are directly mixed into nutrient broth (PDB potato dextrose broth). After placing a (DMSO) solution of test compound into a microtiter plate (96-well format), the nutrient broth containing the fungal spores is added. The test plates are incubated at 24° C. and the inhibition of growth is measured photometrically 3 to 4 days after application.

Pyrenophora teres = experiment: Example B18: Pyrenophora teres/Barley/Leaf Disc Preventative (Net Blotch); format: in vivo; conditions: foliar, barley leaf segments, inoculated 2 days after application
Description: Example B18: Pyrenophora teres/Barley/Leaf Disc Preventative (Net Blotch)
Barley leaf segments cv. Hasso are placed on agar in a multiwell plate (24-well format) and sprayed with the formulated test compound diluted in water. The leaf segments are inoculated with a spore suspension of the fungus 2 days after application. The inoculated leaf segments are incubated at 20° C. and 65% rh under a light regime of 12 h light/12 h darkness in a climate cabinet and the activity of a compound is assessed as disease control compared to untreated when an appropriate level of disease damage appears in untreated check leaf segments (5-7 days after application).

COC(=O)C1c2ccccc2C(c2cnn(C)c2)CN1C(=O)c1cc(-c2ccc(F)cc2F)on1 (stereo not drawn) [X.09, methyl 2-[5-(2,4-difluorophenyl)isoxazole-3-carbonyl]-4-(1-methylpyrazol-4-yl)-3,4-dihydro-1H-isoquinoline-1-carboxylate]
≥ 80%: inhibition of growth at 20 ppm [1] | pest or weed control at 200 ppm [2] | inhibition of growth at 20 ppm [3] | inhibition of growth at 20 ppm [4] | inhibition of growth at 20 ppm [5]

Cn1cc(C2(C)CN(C(=O)c3cc(-c4ccc(F)cc4F)on3)Cc3ccccc32)cn1 (stereo not drawn) [X.14, [5-(2,4-difluorophenyl)isoxazol-3-yl]-[4-methyl-4-(1-methylpyrazol-4-yl)-1,3-dihydroisoquinolin-2-yl]methanone]
≥ 80%: inhibition of growth at 20 ppm [1] | inhibition of growth at 20 ppm [6] | pest or weed control at 200 ppm [2] | inhibition of growth at 20 ppm [3] | inhibition of growth at 20 ppm [4] | pest or weed control at 200 ppm (Pyrenophora teres) | inhibition of growth at 20 ppm [5]

CC(=O)c1c(C2CN(C(=O)c3cc(-c4ccc(F)cc4F)on3)Cc3ccccc32)cnn1C (stereo not drawn) [X.08, 1-[4-[2-[5-(2,4-difluorophenyl)isoxazole-3-carbonyl]-3,4-dihydro-1H-isoquinolin-4-yl]-2-methyl-pyrazol-3-yl]ethanone]
≥ 80%: inhibition of growth at 20 ppm [6] | inhibition of growth at 20 ppm [3] | inhibition of growth at 20 ppm [4] | pest or weed control at 200 ppm (Pyrenophora teres) | inhibition of growth at 20 ppm [5]

Cn1cc(C2(C)CN(C(=O)c3nnc(-c4ccc(F)cc4F)s3)Cc3ccccc32)cn1 (stereo not drawn) [X.07, [5-(2,4-difluorophenyl)-1,3,4-thiadiazol-2-yl]-[4-methyl-4-(1-methylpyrazol-4-yl)-1,3-dihydroisoquinolin-2-yl]methanone]
≥ 80%: inhibition of growth at 20 ppm [1] | inhibition of growth at 20 ppm [6] | inhibition of growth at 20 ppm [3] | inhibition of growth at 20 ppm [4] | inhibition of growth at 20 ppm [5]

Cn1cc(C2c3ccccc3CN(C(=O)c3cc(-c4ccc(F)cc4F)on3)C2(C)C)cn1 (stereo not drawn) [X.13, [5-(2,4-difluorophenyl)isoxazol-3-yl]-[3,3-dimethyl-4-(1-methylpyrazol-4-yl)-1,4-dihydroisoquinolin-2-yl]methanone]
≥ 80%: inhibition of growth at 20 ppm [1] | inhibition of growth at 20 ppm [6] | pest or weed control at 200 ppm [2] | inhibition of growth at 20 ppm [3] | inhibition of growth at 20 ppm [4] | pest or weed control at 200 ppm (Pyrenophora teres) | inhibition of growth at 20 ppm [5]

Cc1c(C2CN(C(=O)c3nnc(-c4ccc(F)cc4F)o3)Cc3ccccc32)cnn1C (stereo not drawn) [X.01, [5-(2,4-difluorophenyl)-1,3,4-oxadiazol-2-yl]-[4-(1,5-dimethylpyrazol-4-yl)-3,4-dihydro-1H-isoquinolin-2-yl]methanone]
≥ 80%: inhibition of growth at 20 ppm [6] | inhibition of growth at 20 ppm [3] | pest or weed control at 200 ppm (Pyrenophora teres) | inhibition of growth at 20 ppm [5]

Cn1cc(C2CN(C(=O)c3nnc(-c4ccc(F)cc4)o3)Cc3ccccc32)cn1 (stereo not drawn) [X.10, [5-(4-fluorophenyl)-1,3,4-oxadiazol-2-yl]-[4-(1-methylpyrazol-4-yl)-3,4-dihydro-1H-isoquinolin-2-yl]methanone]
≥ 80%: inhibition of growth at 20 ppm [6] | pest or weed control at 200 ppm [2] | inhibition of growth at 20 ppm [3] | pest or weed control at 200 ppm (Pyrenophora teres) | inhibition of growth at 20 ppm [5]

Cc1c(C2CN(C(=O)c3nnc(-c4ncc(F)cc4F)s3)Cc3ccccc32)cnn1C (stereo not drawn) [X.28, [5-(3,5-difluoro-2-pyridyl)-1,3,4-thiadiazol-2-yl]-[4-(1,5-dimethylpyrazol-4-yl)-3,4-dihydro-1H-isoquinolin-2-yl]methanone]
≥ 80%: inhibition of growth at 20 ppm [6] | pest or weed control at 200 ppm [2] | inhibition of growth at 20 ppm [4] | pest or weed control at 200 ppm (Pyrenophora teres) | inhibition of growth at 20 ppm [5]

Cn1cc(C2CN(C(=O)c3cc(-c4ccncc4)on3)Cc3ccccc32)cn1 (stereo not drawn) [X.23, [4-(1-methylpyrazol-4-yl)-3,4-dihydro-1H-isoquinolin-2-yl]-[5-(4-pyridyl)isoxazol-3-yl]methanone]
≥ 80%: inhibition of growth at 20 ppm [5]

CCCc1nnc(C(=O)N2Cc3ccccc3C(c3cnn(C)c3C)C2)s1 (stereo not drawn) [X.03, [4-(1,5-dimethylpyrazol-4-yl)-3,4-dihydro-1H-isoquinolin-2-yl]-(5-propyl-1,3,4-thiadiazol-2-yl)methanone]
≥ 80%: inhibition of growth at 20 ppm [6] | inhibition of growth at 20 ppm [4] | inhibition of growth at 20 ppm [5]

Cc1nn(C)c(C)c1C1CN(C(=O)c2cc(-c3ccc(F)cc3F)on2)Cc2ncccc21 (stereo not drawn) [X.15, [5-(2,4-difluorophenyl)isoxazol-3-yl]-[5-(1,3,5-trimethylpyrazol-4-yl)-6,8-dihydro-5H-1,7-naphthyridin-7-yl]methanone]
≥ 80%: inhibition of growth at 20 ppm [6] | inhibition of growth at 20 ppm [3] | inhibition of growth at 20 ppm [4] | pest or weed control at 200 ppm (Pyrenophora teres) | inhibition of growth at 20 ppm [5]

Cn1cc(C2CN(C(=O)c3nnc(-c4ccccc4)o3)Cc3ccccc32)cn1 (stereo not drawn) [X.19, [4-(1-methylpyrazol-4-yl)-3,4-dihydro-1H-isoquinolin-2-yl]-(5-phenyl-1,3,4-oxadiazol-2-yl)methanone]
≥ 80%: inhibition of growth at 20 ppm [1] | inhibition of growth at 20 ppm [6] | inhibition of growth at 20 ppm [3] | inhibition of growth at 20 ppm [4] | inhibition of growth at 20 ppm [5]

Cn1cc(C2CN(C(=O)c3cc(C4CCCCC4)no3)Cc3ccccc32)cn1 (stereo not drawn) [X.18, (3-cyclohexylisoxazol-5-yl)-[4-(1-methylpyrazol-4-yl)-3,4-dihydro-1H-isoquinolin-2-yl]methanone]
≥ 80%: inhibition of growth at 20 ppm [6] | inhibition of growth at 20 ppm [3] | inhibition of growth at 20 ppm [4] | inhibition of growth at 20 ppm [5]

COc1ccc2c(c1)[C@@H](c1cnn(C)c1)CN(C(=O)c1cc(-c3ccc(F)cc3F)on1)[C@H]2C [X.05, [5-(2,4-difluorophenyl)isoxazol-3-yl]-[(1S,4S)-6-methoxy-1-methyl-4-(1-methylpyrazol-4-yl)-3,4-dihydro-1H-isoquinolin-2-yl]methanone]
≥ 80%: inhibition of growth at 20 ppm [1] | inhibition of growth at 20 ppm [3] | inhibition of growth at 20 ppm [4] | inhibition of growth at 20 ppm [5]

Cc1c(C2CN(C(=O)c3nnc(C4CCCCC4)s3)Cc3ccccc32)cnn1C (stereo not drawn) [X.04, (5-cyclohexyl-1,3,4-thiadiazol-2-yl)-[4-(1,5-dimethylpyrazol-4-yl)-3,4-dihydro-1H-isoquinolin-2-yl]methanone]
≥ 80%: inhibition of growth at 20 ppm [6] | inhibition of growth at 20 ppm [3] | inhibition of growth at 20 ppm [4] | inhibition of growth at 20 ppm [5]
